In patent US6627635B2, “Method of preventing abuse of opioid dosage forms” (priority 1997, dated 2003):

Legend:
[1] = in comparison to a 15 mg dose of hydrocodone
Excerpt: In certain preferred embodiments, the opioid agonist is hydrocodone.

[2] = Simulated extractability of naltrexone HCl from hydrocodone bitartrate CR AcroContin tablets, 5 tablets in 5 mL solvent (HPLC recovery); format: physicochemical; settings: for % Precipitated: 5 tablets in 5 mL; for extractable from the tablets at the higher pH's: high pH (substantially greater than pH 10, preferably above pH 11)
[3] = pKa values of the drug substances
[4] = Simulated extractability of naltrexone HCl from hydrocodone bitartrate CR AcroContin tablets, 4 tablets in 25 mL solvent (HPLC recovery); settings: for solubility in acetone: poor recoveries; for dissolution in the solvents: all of the solvents except acetone
[5] = hydrochloride salt; cited from earlier work
[6] = cited from earlier work
[7] = after oral doses; cited from earlier work
mu over delta sites = settings: cited from earlier work
[8] = Extractability of naltrexone HCl (1.5 mg) from oxycodone HCl (15 mg), 5 tablets/5 mL solvent; format: physicochemical
[9] = tested on: effects of morphine-like opioid agonist; settings: cited from earlier work

## COc1ccc2c3c1O[C@H]1[C@@H](O)C=C[C@H]4[C@@H](C2)N(C)CC[C@@]341 [Codeine]
[1]
  Equianalgesic Doses of Opioids, Calculated Dose: 90.0 mg

## COc1ccc2c3c1OC1C(=O)CC[C@H]4[C@@H](C2)N(C)CC[C@]314 (some centres unmarked) [Hydrocodone, 4,5-epoxy-3-methoxy-17-methylmorphinan-6-one]
[2]; diluent pH 7.1
  % Precipitated: 8%
[2]; diluent pH 8.0
  % Precipitated: 12%
[2]; diluent pH 9.0
  % Precipitated: 27%
[2]; diluent pH 10.0
  % Precipitated: 28%
[2]; diluent pH 11.0
  % Precipitated: 21%
[2]; diluent pH 12.0
  % Precipitated: 83%
[2]; diluent pH 12.7
  % Precipitated: 81%
[2]
  extractable from the tablets at the higher pH's: about 80%
[1]
  Equianalgesic Doses of Opioids, Calculated Dose: 15.0 mg
[3]; at amine functional group
  pKa: 9.2
[4]
  solubility in acetone: less soluble
  dissolution in the solvents: dissolved completely

## CN1CC[C@]23CCCC[C@H]2[C@H]1Cc1ccc(O)cc13 [Levorphanol]
[1]
  Equianalgesic Doses of Opioids, Calculated Dose: 1.8 mg

## CCC(=O)C(CC(C)N(C)C)(c1ccccc1)c1ccccc1 (centres unmarked) [Methadone]
[1]
  Equianalgesic Doses of Opioids, Calculated Dose: 9.0 mg

## O=C1CC[C@@]2(O)[C@H]3Cc4ccc(O)c5c4[C@@]2(CCN3CC2CC2)[C@H]1O5 [Naltrexone]
[2]
  extractable from the tablets at the higher pH's: about 10%
[2]; listed as Naltrexone Hydrochloride
  extractable from the tablets at the higher pH's: ~10%
[5]
  soluble in water: about 100 mg/cc
[6]; in vivo
  protein binding: approximately 21%
[6]; oral
  oral bioavailability: 5-40%
[7]
  duration of action: ~24 h
Mu over delta sites
  blocking action, receptor preference: strong preferential blocking action
[3]; at amine functional group
  pKa: 8.4
[3]; at phenol functional group
  pKa: 10.3
[4]
  solubility in acetone: less soluble
  dissolution in the solvents: dissolved completely

## COc1ccc2c3c1O[C@H]1C(=O)CC[C@@]4(O)[C@@H](C2)N(C)CC[C@]314 [Oxycodone]
[8]; diluent Ethanol
  % Precipitated: 13%
[8]; diluent IPA
  % Precipitated: 86%
[8]; diluent Methanol
  % Precipitated: 13%
[8]; diluent pH 6.9
  % Precipitated: 6%
[8]; diluent pH 8.1
  % Precipitated: 87%
[8]; diluent pH 9.4
  % Precipitated: 98%
[8]; diluent pH 10.2
  % Precipitated: 98%
[8]; diluent pH 11.0
  % Precipitated: 98%
[8]; diluent pH 11.9
  % Precipitated: 98%
[8]; diluent pH 12.8
  % Precipitated: 98%
[1]
  Equianalgesic Doses of Opioids, Calculated Dose: 13.5 mg

## C[C@H]1[C@H]2Cc3ccc(O)cc3[C@]1(C)CCN2CC1CC1 [cyclazocine]
[7]
  duration of action: ~24 h

## C=CCN1CC[C@]23c4c5ccc(O)c4O[C@H]2C(=O)CC[C@@]3(O)[C@H]1C5 [naloxone]
[9]; 0.4-0.8 mg intramuscularly or intravenously in man
  antagonism of morphine-like opioid agonist effects: prevent or promptly reverse the effects of morphine-like opioid agonist
[9]; one mg intravenously
  block of the effect of 25 mg of heroin: completely block

## Meperidine
[1]
  Equianalgesic Doses of Opioids, Calculated Dose: 135.0 mg
